This is an account of results in patent US9175022B2, “Compounds for the treatment of proliferative disorders” (Synta Pharmaceuticals Corp., priority 2005, dated 2015).

Structures are written as SMILES.

The subject of one series is HL-60. The series can be described thus: In vitro cytotoxicity, MTS assay, 72 hours. As to conditions: Homo sapiens, HL-60, 72 hours, read-out: IC50 (concentration required to inhibit 50% tumor cell growth). In kind it is cell-based. As to the method:
(§1) The in vitro cytotoxicity of the compounds of the invention was determined in the following human cell lines: HL-60, HL-60-TX1000 (MDR), MES-SA and MES-SA/DX5 (uterine sarcoma). MES-SA is a model of uterine sarcoma, and the cells are sensitive to a number of chemotherapeutic agents including doxorubicin, dactinomycin, mitomycin C, taxol and bleomycin. The MES-SA/Dx5 cell line was established in the presence of increasing concentrations of doxorubicin. […] All cells except HL-60-TX1000 were purchased from ATCC. HL-60, a model of myeloid leukemia, was from ATCC and HL60/TX1000 was a gift from Dr. Bhalla of Emory University School of Medicine. HL-60/TX1000 was isolated in vitro by subculturing HL-60 in progressively higher concentration of Taxol. HL-60/TX1000 cells over-express mdr-1 mRNA and p-glycoprotein, as determined by western blot and immunofluorescence labeling with antiPGP antibodies
(§2) The cell lines were maintained in RPMI1640 (GIBCO) supplemented with 10% FCS, 100 units/mL penicillin, 100 ug/ml streptomycin, and 2 mM L-glutamine. Cells were split every third day and diluted to a concentration of 2×10^5 cells/mL one day before the experiment was performed. All experiments were performed on exponentially growing cell cultures. Cell densities were 2.5×10^4 cells/mL in all experiments.
(§3) Test compounds were prepared by dissolving the compounds at a concentration of 10 mM in 100% DMSO. Final concentrations 10, 1, 0.1, 0.01 and 0.001 μM were obtained by diluting the stock solution directly into the tissue culture medium. Cells were incubated with varying concentrations of test compounds for 72 hours and the IC50 was determined by MTS (i.e. […]) assay. IC50 in this context stands for the concentration of a compound required to inhibit 50% tumor cell growth.
In general terms: Tetrazolium assays rely on reduction of a dye to a coloured formazan, in cell work by metabolically active cells.

Series [1] concerns MES-SA/DX5 (uterine sarcoma). The series can be described thus: In vitro cytotoxicity, MTS assay, 72 hours. In kind it is cell-based. Conditions: Homo sapiens, MES-SA/DX5 multi-drug resistant, read-out: IC50 (concentration required to inhibit 50% tumor cell growth). As to the method: as §1, §2, §3
In another series the test system is HL-60-TX1000 (MDR). The series can be described thus: In vitro cytotoxicity, MTS assay, 72 hours. It counts as cell-based. As to conditions: Homo sapiens, HL60/TX1000, HL-60-TX1000 multi-drug resistant, read-out: IC50 (concentration required to inhibit 50% tumor cell growth). As to the method:
as §1, §2, §3

The test system of the next series is MES-SA. The series can be described thus: In vitro cytotoxicity, MTS assay, 72 hours. In kind it is cell-based. Conditions: Homo sapiens, read-out: IC50 (concentration required to inhibit 50% tumor cell growth). As to the method:
as §1, §2, §3

The test system of series [2] is MDA-MB-435S melanoma cells or RERF-LC-AI lung tumor cells. The series can be described thus: Anti-tumor activity in nude mouse xenograft models. In kind it is in vivo. Conditions: i.v. As to the method: The human tumor cell line, MDA-MB-435S (ATCC #HTB-129; G. Ellison, et al., Mol. Pathol. 55:294-299, 2002), is obtained from the American Type Culture Collection (ATCC; Manassas, Va., USA). The human tumor cell line, RERF-LC-AI (RCB0444; S. Kyoizumi, et al., Cancer. Res. 45:3274-3281, 1985), is obtained from the Riken Cell Bank (RCB; Tsukuba, Ibaraki, Japan). The cell lines are cultured in growth media prepared from 50% Dulbecco's Modified Eagle Medium (high glucose), 50% RPMI Media 1640, 10% fetal bovine serum (FBS), 1% 100×L-glutamine, 1% 100× Penicillin-Streptomycin, 1% 100× sodium pyruvate and 1% 100×MEM non-essential amino acids. FBS is obtained from ATCC and all other reagents are obtained from Invitrogen Corp. (Carlsbad, Calif., USA). […] The supernatant is aspirated and the cell pellet is resuspended in 10 mL of growth media and the cell number is determined using a hemocytometer. […]
Tumors are then permitted to develop in vivo until they reached approximately 100-200 mm^3 in volume, which typically required 2-3 weeks following implantation. Tumor volumes (V) are calculated by caliper measurement of the width (W), length (L) and thickness (T) of tumors using the following formula: V=0.5326×(L×W×T). […]

Series [3] has as its system CHO-α-tubulin-YFP or MCF7-α-tubulin-YFP cells. The series can be described thus: Inhibition of tubulin polymerization, tubulin-YFP fluorescence imaging. In kind it is cell-based. Conditions: living or fixed cells, fluorescence microscopy. The text has this:
Wild-type Chinese Hamster Ovary cells (WT CHO) cells are maintained in Ham's F-12 medium supplemented with 10% fetal bovine serum (FBS; HyClone, Logan, Utah). Cells of low density (−20%) growing on 2-well chambered cover-slips (Labtek (Campbell, Calif.) or Fisher Scientific) are transfected with a mammalian expression vector encoding α-tubulin-YFP (Clontech, Palo Alto, Calif.) with the use of FuGENE 6 (Roche Molecular Biochemicals, Indianapolis, Ind.), according to the manufacturer's instructions. Twenty-four hours after transfection, the cells are cultured in 400 μg/ml G418 (Invitrogen, Carlsbad, Calif.)-containing selection medium for 2 weeks. Living cells are examined using a fluorescent microscope for α-tubulin-YFP expression. […] Expressed tubulin-YFP is detected as a single band in Western blots. […]
CHO-α-tubulin-YFP or MCF7-α-tubulin-YFP cells are cultured in 2-well chambered cover-slips (Labtek (Campbell, Calif.) or Fisher Scientific) for 24 hours before treatment with a compound of the invention. […] Tubulin-YFP fluorescence in living cells or fixed cells is captured using a standard filter for FITC and objectives of 20× or 60× magnification on a Nikon TE300 microscope with a Leica DC50 color digital camera (Leica, Bannockburn, Ill.) or a CoolSnap HQ monochrome CCD camera (Photonetrics, Tucson, Ariz.). […]

For another series, the system named is CV-1 cells. As to the kind of experiment: Microtubule disruption in cells resistant to colchicine and vincristine. It counts as cell-based. As to conditions: 500 nM; 24, 48 and 72 hr. As to the method:
The effects of compounds of the invention on microtubules can be studied in CV-1 cells. The microtubules of CV-1 cells are known to be resistant to the depolymerizing effects of colchicine and vincristine. CV-1 cells are treated with 500 nM of a compound of the invention, or vincristine or colchicines. At 24, 48 and 72 hr the cells are fixed and stained to examine microtubule structure. In cells treated with compounds of the invention, microtubule structures are expected to be diminished compared to untreated cells.

Turning to `COc1ccc(-c2cnnn2-c2cc(OC)c(OC)c(OC)c2)cc1` [Compound 3, 1-(3,4,5-trimethoxy-phenyl)-5-(4-methoxy-phenyl)-1H-[1,2,3]triazole], the IC50 in the series on HL-60 turned out to be 53 nM; in series [1], 37 nM; in the series with HL-60-TX1000 (MDR), 20 nM; with MES-SA, 52 nM. In series [2] (nude mice), the “overt toxicity (effect on body weights)” value was “minimal”.
As to `COc1cc(-n2nncc2-c2ccc(N(C)C)cc2)cc(OC)c1OC` [Compound 5, 1-(3,4,5-trimethoxy-phenyl)-5-[4-(N,N-dimethylamino)-phenyl]-1H-[1,2,3]triazole], the IC50 was found to be 41.5 nM in the series with HL-60, 29 nM in series [1], 7.5 nM in the series on HL-60-TX1000 (MDR) and 68.5 nM in the series on MES-SA.
As to `CC(=O)O[C@H]1C(=O)[C@@]2(C)[C@H]([C@H](OC(=O)c3ccccc3)[C@]3(O)C[C@H](OC(=O)[C@H](O)[C@@H](NC(=O)c4ccccc4)c4ccccc4)C(C)=C1C3(C)C)[C@]1(OC(C)=O)CO[C@@H]1C[C@@H]2O` [Taxol, paclitaxel, reference compound], the IC50 is 2 nM in the series with HL-60, 5000 nM in series [1], 1000 nM in the series on HL-60-TX1000 (MDR) and 5 nM with MES-SA. Also, the “tubulin-YFP labeled microtubule pattern” value in series [3] was “microtubule bundle formation”.
Consider `COc1cc2c(c(OC)c1OC)-c1ccc(OC)c(=O)cc1[C@@H](NC(C)=O)CC2` [colchicines, colchicine], for which the microtubule structure result in the series on CV-1 cells was “Disorganized but clear microtubule structures”.
In the case of `CC(=O)O[C@H]1C(=O)[C@@]2(C)[C@H]([C@H](OC(=O)c3ccccc3)[C@]3(O)C[C@H](OC(=O)[C@H](O)[C@@H](NC(=O)c4ccccc4)c4ccccc4)C(C)=C1C3(C)C)[C@]1(OC(C)=O)CO[C@@H]1C[C@@H]2O` [paclitaxel, reference compound], the tumor growth result in series [2] (3 days per week, 9-10 doses, compounds 6.25, 12.5 and 25 mg/kg, paclitaxel 7.5 mg/kg) is listed as “decreased tumor growth”.
Take `CC[C@]1(O)C[C@H]2CN(CCc3c([nH]c4ccccc34)[C@@](C(=O)OC)(c3cc4c(cc3OC)N(C=O)[C@H]3[C@@](O)(C(=O)OC)[C@H](OC(C)=O)[C@]5(CC)C=CCN6CC[C@]43[C@@H]65)C2)C1` [vincristine, Vincristine]: in the series with CV-1 cells, the microtubule structure result is reported as “Disorganized but clear microtubule structures”.
